Measured values taken from patent US8574563B2 (Bristol-Myers Squibb Company, priority 2006, dated 2013).

test system: HCV 1b-377-neo replicon cells; assay: HCV replicon assay, HCV 1b-377-neo replicon cells (1b FRET); type: cell-based, Hepatitis C virus genotype 1b; conditions: Hepatitis C virus, HCV 1b-377-neo replicon cells; HCV 1b genotype; read-out: EC50 range against HCV 1b (Table 2, Range)
Outline: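 Compounds tested in HCV genotype 1b-377-neo replicon cells with a FRET read-out. Cells resistant to a reference NS5A inhibitor through a Y2065H NS5A mutation were run alongside wild-type cells.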

Question: With `COC(=O)N[C@@H](C(=O)N1CCC[C@H]1c1ncc(-c2ccc(-c3ccc(-c4cnc([C@@H]5CCCN5C(=O)Cc5ccccc5)[nH]4)cc3)cc2)[nH]1)c1ccccc1` [Example 28, methyl ((1R)-2-oxo-1-phenyl-2-((2S)-2-(5-(4′-(2-((2S)-1-(phenylacetyl)-2-pyrrolidinyl)-1H-imidazol-5-yl)-4-biphenylyl)-1H-imidazol-2-yl)-1-pyrrolidinyl)ethyl)carbamate] as the compound, how does the EC50 read?
Answer: 1 to 99 nM

Question: How did the EC50 turn out when `O=C([C@@H]1CCCO1)N1CCC[C@H]1c1ncc(-c2ccc(-c3ccc(-c4cnc([C@@H]5CCCN5C(=O)[C@@H](c5ccccc5)N5CCOCC5)[nH]4)cc3)cc2)[nH]1` [Example 105, 4-((1R)-2-oxo-1-phenyl-2-((2S)-2-(5-(4′-(2-((2S)-1-((2S)-tetrahydro-2-furanylcarbonyl)-2-pyrrolidinyl)-1H-imidazol-5-yl)-4-biphenylyl)-1H-imidazol-2-yl)-1-pyrrolidinyl)ethyl)morpholine] was run?
Answer: 0.001 to 0.999 nM

Question: Which EC50 does the source give for `CCN(CC)[C@@H](C(=O)N1CCC[C@H]1c1ncc(-c2ccc(-c3ccc(-c4cnc([C@@H]5CCCN5C(=O)[C@@H]5CC[C@H](NC(=O)OC)C5)[nH]4)cc3)cc2)[nH]1)c1ccccc1` [cj-57, methyl ((1S,3R)-3-(((2S)-2-(5-(4′-(2-((2S)-1-((2R)-2-(diethylamino)-2-phenylacetyl)-2-pyrrolidinyl)-1H-imidazol-5-yl)-4-biphenylyl)-1H-imidazol-2-yl)-1-pyrrolidinyl)carbonyl)cyclopentyl)carbamate] here?
Answer: 0.001 to 0.999 nM

Question: How did the EC50 turn out when `CC(C)[C@H](O)C(=O)N[C@@H](C)C(=O)N1CCC[C@H]1c1nc(-c2ccc(-c3ccc(-c4cnc([C@@H]5CCCN5C(=O)[C@H](C)NC(=O)[C@@H](O)C(C)C)[nH]4)cc3)cc2)c[nH]1` [Example F22, (2S)-2-hydroxy-N-((1S)-2-((2S)-2-(5-(4′-(2-((2S)-1-(N-((2S)-2-hydroxy-3-methylbutanoyl)-L-alanyl)-2-pyrrolidinyl)-1H-imidazol-4-yl)-4-biphenylyl)-1H-imidazol-2-yl)-1-pyrrolidinyl)-1-methyl-2-oxoethyl)-3-methylbutanamide] was run?
Answer: 100 to 999 nM

Question: For `CCN(CC)[C@@H](C(=O)N1CCC[C@H]1c1ncc(-c2ccc(-c3ccc(-c4cnc([C@@H]5CCCN5C(=O)[C@H](Cc5c[nH]c6ccccc56)NC(=O)OC)[nH]4)cc3)cc2)[nH]1)c1ccccc1` [cj-101, methyl ((1S)-2-((2S)-2-(5-(4′-(2-((2S)-1-((2R)-2-(diethylamino)-2-phenylacetyl)-2-pyrrolidinyl)-1H-imidazol-5-yl)-4-biphenylyl)-1H-imidazol-2-yl)-1-pyrrolidinyl)-1-(1H-indol-3-ylmethyl)-2-oxoethyl)carbamate], which EC50 is on record?
Answer: 0.001 to 0.999 nM

Question: Which EC50 does the source give for `O=C1C[C@@H](C(=O)N2CCC[C@H]2c2ncc(-c3ccc(-c4ccc(-c5cnc([C@@H]6CCCN6C(=O)[C@@H]6CC(=O)NC(=O)N6)[nH]5)cc4)cc3)[nH]2)NC(=O)N1` [cj-132, (6S,6′S)-6,6′-(4,4′-biphenyldiylbis(1H-imidazole-5,2-diyl(2S)-2,1-pyrrolidinediylcarbonyl))didihydro-2,4(1H,3H)-pyrimidinedione] here?
Answer: 100 to 999 nM

Question: How did the EC50 turn out when `CCN(CC)[C@@H](C(=O)N1CC(F)(F)C[C@H]1c1ncc(-c2ccc(-c3ccc(-c4cnc([C@@H]5CC(F)(F)CN5C(=O)[C@@H](c5ccccc5)N(CC)CC)[nH]4)cc3)cc2)[nH]1)c1ccccc1` [OL-9, (1R,1′R)-2,2′-(4,4′-biphenyldiylbis(1H-imidazole-4,2-diyl((2S)-4,4-difluoro-2,1-pyrrolidinediyl)))bis(N,N-diethyl-2-oxo-1-phenylethanamine)] was run?
Answer: 0.001 to 0.999 nM

Question: Which EC50 does the source give for `C[C@H](NC(=O)[C@@H](c1ccccc1)N(C)C)c1ncc(-c2ccc(-c3ccc(-c4cnc([C@H](C)NC(=O)[C@@H](c5ccccc5)N(C)C)[nH]4)cn3)cc2)[nH]1` [Example 152j-24, (2R)-2-(dimethylamino)-N-((1S)-1-(5-(6-(4-(2-((1S)-1-(((2R)-2-(dimethylamino)-2-phenylacetyl)amino)ethyl)-1H-imidazol-5-yl)phenyl)-3-pyridinyl)-1H-imidazol-2-yl)ethyl)-2-phenylacetamide] here?
Answer: 0.001 to 0.999 nM

Question: With `COC(=O)N[C@@H](C)C(=O)N1CCC[C@H]1c1ncc(-c2ccc(-c3ccc(-c4cnc([C@@H]5CCCN5C(=O)[C@H](Cc5cn(C)cn5)NC(=O)OC)[nH]4)cc3)cc2)[nH]1` [cj-41, methyl ((1S)-2-((2S)-2-(5-(4′-(2-((2S)-1-(N-(methoxycarbonyl)-L-alanyl)-2-pyrrolidinyl)-1H-imidazol-5-yl)-4-biphenylyl)-1H-imidazol-2-yl)-1-pyrrolidinyl)-1-((1-methyl-1H-imidazol-4-yl)methyl)-2-oxoethyl)carbamate] as the compound, how does the EC50 read?
Answer: 0.001 to 0.999 nM

Question: Which EC50 does the source give for `COC(=O)N[C@@H](C)C(=O)N1CCC[C@H]1c1ncc(-c2ccc(-c3ccc(-c4cnc([C@@H]5CCCN5C(=O)[C@@H]5CCN5C(=O)OC)[nH]4)cc3)cc2)[nH]1` [cj-49, methyl (2S)-2-(((2S)-2-(5-(4′-(2-((2S)-1-(N-(methoxycarbonyl)-L-alanyl)-2-pyrrolidinyl)-1H-imidazol-5-yl)-4-biphenylyl)-1H-imidazol-2-yl)-1-pyrrolidinyl)carbonyl)-1-azetidinecarboxylate] here?
Answer: 1 to 99 nM

Question: For `COC(=O)N[C@@H](C(=O)N1CCC[C@H]1c1ncc(-c2ccc(-c3ccc(-c4cnc([C@@H]5CCCN5C(=O)Cc5ccccc5CN(C)C)[nH]4)cc3)cc2)[nH]1)c1ccccc1` [Example 84-87, methyl ((1R)-2-((2S)-2-(5-(4′-(2-((2S)-1-((2-((dimethylamino)methyl)phenyl)acetyl)-2-pyrrolidinyl)-1H-imidazol-5-yl)-4-biphenylyl)-1H-imidazol-2-yl)-1-pyrrolidinyl)-2-oxo-1-phenylethyl)carbamate], which EC50 is on record?
Answer: 0.001 to 0.999 nM

Question: How did the EC50 turn out when `CCCCN[C@@H](C(=O)N1CCC[C@H]1c1nc(-c2ccc(-c3ccc(-c4cnc([C@@H]5CCCN5C(=O)[C@H](NCCCC)c5ccccc5)[nH]4)cc3)cc2)c[nH]1)c1ccccc1` [Example F17, N-((1R)-2-((2S)-2-(4-(4′-(2-((2S)-1-((2R)-2-(butylamino)-2-phenylacetyl)-2-pyrrolidinyl)-1H-imidazol-5-yl)-4-biphenylyl)-1H-imidazol-2-yl)-1-pyrrolidinyl)-2-oxo-1-phenylethyl)-1-butanamine] was run?
Answer: 0.001 to 0.999 nM

Question: How did the EC50 turn out when `COC(=O)N[C@@H](Cc1ccc(OCc2ccccc2)cc1)C(=O)N1CCC[C@H]1c1ncc(-c2ccc(-c3ccc(-c4cnc([C@@H]5CCCN5C(=O)[C@@H](NC(=O)OC)C(C)C)[nH]4)cc3)cc2)[nH]1` [cj-104, methyl ((1S)-1-(((2S)-2-(5-(4′-(2-((2S)-1-(O-benzyl-N-(methoxycarbonyl)-L-tyrosyl)-2-pyrrolidinyl)-1H-imidazol-5-yl)-4-biphenylyl)-1H-imidazol-2-yl)-1-pyrrolidinyl)carbonyl)-2-methylpropyl)carbamate] was run?
Answer: 0.001 to 0.999 nM

Question: Which EC50 does the source give for `COC(=O)N[C@H](C(=O)N1[C@@H]2C[C@@H]2C[C@H]1c1ncc(-c2ccc(-c3ccc(-c4cnc([C@@H]5C[C@H]6C[C@H]6N5C(=O)CCCC[C@@H]5SC[C@@H]6NC(=O)N[C@@H]65)[nH]4)cc3)cc2)[nH]1)C(C)C` [Example M139] here?
Answer: 0.001 to 0.999 nM

Question: For `CCOC(=O)N[C@H](C)C(=O)N1CCC[C@H]1c1ncc(-c2ccc(-c3ccc(-c4cnc([C@@H]5CCCN5C(=O)[C@@H](c5ccccc5)N(CC)CC)[nH]4)cc3)cc2)[nH]1` [Example M30, ethyl ((1R)-2-((2S)-2-(5-(4′-(2-((2S)-1-((2R)-2-(diethylamino)-2-phenylacetyl)-2-pyrrolidinyl)-1H-imidazol-5-yl)-4-biphenylyl)-1H-imidazol-2-yl)-1-pyrrolidinyl)-1-methyl-2-oxoethyl)carbamate], which EC50 is on record?
Answer: 1 to 99 nM

Question: With `CCN(CC)[C@@H](C(=O)N1CCC[C@H]1c1ncc(-c2ccc(-c3ccc(-c4cnc([C@@H]5CCCN5C(=O)[C@@H]5CCC[C@H]5NC(=O)OC)[nH]4)cc3)cc2)[nH]1)c1ccccc1` [cj-109, methyl ((1R,2R)-2-(((2S)-2-(5-(4′-(2-((2S)-1-((2R)-2-(diethylamino)-2-phenylacetyl)-2-pyrrolidinyl)-1H-imidazol-5-yl)-4-biphenylyl)-1H-imidazol-2-yl)-1-pyrrolidinyl)carbonyl)cyclopentyl)carbamate] as the compound, how does the EC50 read?
Answer: 0.001 to 0.999 nM

Question: For `COC(=O)N[C@@H](C(=O)N1CCC[C@H]1c1ncc(-c2ccc(-c3ccc(-c4cnc([C@@H]5CCCN5C(=O)c5ccc(N(C)C)cc5)[nH]4)cc3)cc2)[nH]1)c1ccccc1` [Example 84-33, methyl ((1R)-2-((2S)-2-(5-(4′-(2-((2S)-1-(4-(dimethylamino)benzoyl)-2-pyrrolidinyl)-1H-imidazol-5-yl)-4-biphenylyl)-1H-imidazol-2-yl)-1-pyrrolidinyl)-2-oxo-1-phenylethyl)carbamate], which EC50 is on record?
Answer: 0.001 to 0.999 nM

Question: With `COC(=O)N[C@@H](C(=O)N1CCC[C@H]1c1ncc(-c2ccc(-c3ccc(-c4cnc([C@@H]5CCCN5C(=O)[C@H]5CCCO5)[nH]4)cn3)cc2)[nH]1)c1ccccc1` [Example 141, methyl ((1R)-2-oxo-1-phenyl-2-((2S)-2-(5-(4-(5-(2-((2S)-1((2R)-tetrahydro-2-furanylcarbonyl)-2-pyrrolidinyl)-1H-imidazol-5-yl)-2-pyridinyl)phenyl)-1H-imidazol-2-yl)-1-pyrrolidinyl)ethyl)carbamate] as the compound, how does the EC50 read?
Answer: 0.001 to 0.999 nM

Question: For `O=C(C(c1ccccc1)N1CCNCC1)N1CCC[C@H]1c1ncc(-c2ccc(-c3ccc(-c4c[nH]c([C@@H]5CCCN5C(=O)[C@H]5CCCO5)n4)cc3)cc2)[nH]1` (stereo partly drawn) [Example 103-7, 1-(2-oxo-1-phenyl-2-((2S)-2-(5-(4′-(2-((2S)-1-((2R)-tetrahydro-2-furanylcarbonyl)-2-pyrrolidinyl)-1H-imidazol-4-yl)-4-biphenylyl)-1H-imidazol-2-yl)-1-pyrrolidinyl)ethyl)piperazine], which EC50 is on record?
Answer: 0.001 to 0.999 nM

Question: How did the EC50 turn out when `COC(=O)N[C@@H](C(=O)N1CCC[C@H]1c1ncc(-c2ccc(-c3ccc(-c4cnc([C@@H]5CCCN5C(=O)[C@@H](c5ccccc5)N(C)C)[nH]4)cc3)cc2)[nH]1)c1ccccc1` [Example 42, methyl ((1R)-2-((2S)-2-(5-(4′-(2-((2S)-1-((2R)-2-(dimethylamino)-2-phenylacetyl)-2-pyrrolidinyl)-1H-imidazol-5-yl)-4-biphenylyl)-1H-imidazol-2-yl)-1-pyrrolidinyl)-2-oxo-1-phenylethyl)carbamate] was run?
Answer: 0.001 to 0.999 nM
